Test results taken from patent publication US20160129044A1, “USE OF MESOTHELIAL CELLS IN TISSUE BIOENGINEERING AND ARTIFICIAL TISSUES” (FUNDACION PÚBLICA ANDALUZA PROGRESO Y SALUD, priority 2013, published 2016).

System: adipose tissue mesothelial cells (ATMCs)
Experiment: Epithelial-to-mesenchymal transition (EMT) of cultured adipose tissue mesothelial cells: morphology, α-SMA/F-actin immunofluorescence, Western blot
Type: cell-based, mouse
Details: hydrocortisone 1 μg/ml; ATMCs cultured 3 days; basal media or 20 ng/ml EGF
Procedure: A total number of 3.5×10^5 ATMCs was seeded in each well of a 6 wells culture dishes (140685, Nunclon™ Δ Surface) into 1.5 ml of a culture media that we termed MRPM (Mesothelial Retaining Phenotype Media). […] Dev Dyn 236: 2973-2979) which are components of the fetal bovine serum (FBS). […] Concentration in viable ATMCs was assessed with a Neubaeur haemocytometer by using the trypan blue exclusion test and was adjusted to a final concentration of 1.6×10^6 cells/ml. […] The mesothelial phenotype of ATMCs cultured for 48 hours in MRPM into hydrophilic p-Dish as well as mesothelialized HALC cultures was analyzed with immunofluorescence. […] Fluorescence images were captured with an inverted fluorescence microscope Olympus IX71 as described above. Quantification of α-SMA immunofluorescence expression was performed with the use of the Meta Imaging Software MetaMorph Offline version 7.5.1.0 (MDS Analytical technologies, USA). For each immunofluorescence image, were calculated the average values of specific Hoechst 33342 and Alexa 488 nm fluorescence emitted by the cells. Specific fluorescence was obtained after eliminating the average values of background fluorescence emitted by 3 areas lacking cells. Hoechst 33342 and Alexa 488 nm fluorescence were further divided between each other to obtain a relative index of marker expression (arbitrary units). […]

**Q.** How did the “Effect on Serum- and EGF-induced EMT of ATMCs (α-SMA expression, immunofluorescence and Western blot)” value turn out when `C[C@]12CCC(=O)C=C1CC[C@@H]1[C@@H]2[C@@H](O)C[C@@]2(C)[C@H]1CC[C@]2(O)C(=O)CO` [Hydrocortisone, hydrocortisone] was run?
**A.** Its value is “inhibits Serum- and EGF-induced EMT”.
